Measurements as given in paper PMC6648289 (ACS Omega, 2019).

How the values were obtained:
Assay in all cases: FLIPR membrane potential
Type in all cases: cell-based
Conditions in all cases: concentration used for PAM testing
[1] = target: T1, human α1β2δ GABAA receptor (Homo sapiens, UniProt O14764+P14867+P47870)
T1 sequence (P14867 28-456): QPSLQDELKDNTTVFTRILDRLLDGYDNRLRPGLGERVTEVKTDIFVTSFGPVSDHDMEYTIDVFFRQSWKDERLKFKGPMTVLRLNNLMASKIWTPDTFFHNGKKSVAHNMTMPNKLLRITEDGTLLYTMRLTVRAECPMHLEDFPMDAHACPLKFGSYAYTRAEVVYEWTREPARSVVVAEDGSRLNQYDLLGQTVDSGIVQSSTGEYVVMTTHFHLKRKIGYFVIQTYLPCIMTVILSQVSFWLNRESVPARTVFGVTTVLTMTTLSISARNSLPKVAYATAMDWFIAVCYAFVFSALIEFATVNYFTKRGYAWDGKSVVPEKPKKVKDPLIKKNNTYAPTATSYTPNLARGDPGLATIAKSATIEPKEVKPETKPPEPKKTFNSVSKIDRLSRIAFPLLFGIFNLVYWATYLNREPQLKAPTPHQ
T1 sequence (P47870 25-512 limits assumed): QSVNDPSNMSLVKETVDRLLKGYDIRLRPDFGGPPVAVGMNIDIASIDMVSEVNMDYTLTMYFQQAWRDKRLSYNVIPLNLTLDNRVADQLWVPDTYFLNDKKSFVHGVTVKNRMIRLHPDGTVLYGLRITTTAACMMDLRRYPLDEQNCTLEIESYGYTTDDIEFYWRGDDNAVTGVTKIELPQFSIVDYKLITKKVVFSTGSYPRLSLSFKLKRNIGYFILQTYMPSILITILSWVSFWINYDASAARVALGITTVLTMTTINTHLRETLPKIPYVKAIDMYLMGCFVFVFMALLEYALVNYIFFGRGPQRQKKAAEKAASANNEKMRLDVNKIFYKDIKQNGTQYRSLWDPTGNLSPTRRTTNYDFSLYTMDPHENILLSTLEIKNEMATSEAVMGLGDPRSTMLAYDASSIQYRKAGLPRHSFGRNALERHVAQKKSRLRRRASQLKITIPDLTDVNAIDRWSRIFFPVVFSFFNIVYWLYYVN
T1 sequence (O14764 17-452 limits assumed): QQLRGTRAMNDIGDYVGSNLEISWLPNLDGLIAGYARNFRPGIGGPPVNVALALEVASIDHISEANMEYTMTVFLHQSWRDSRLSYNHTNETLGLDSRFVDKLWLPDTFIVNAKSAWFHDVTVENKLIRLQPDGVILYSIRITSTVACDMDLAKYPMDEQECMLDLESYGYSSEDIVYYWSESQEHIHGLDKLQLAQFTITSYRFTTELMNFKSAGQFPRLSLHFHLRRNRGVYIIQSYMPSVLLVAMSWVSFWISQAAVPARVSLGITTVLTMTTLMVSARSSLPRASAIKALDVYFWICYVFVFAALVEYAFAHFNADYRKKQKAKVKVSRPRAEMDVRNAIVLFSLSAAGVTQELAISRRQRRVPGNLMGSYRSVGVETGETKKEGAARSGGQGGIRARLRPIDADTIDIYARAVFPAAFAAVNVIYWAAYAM

[2] = target: human α4β2δ GABAA receptor (Homo sapiens, UniProt O14764+P47870+P48169)
[3] = target: human α6β2δ GABAA receptor (Homo sapiens, UniProt O14764+P47870+Q16445)
[4] = target: human α6β2γ2s GABAA receptor (Homo sapiens, UniProt P18507+P47870+Q16445)
Sequence of human α6β2γ2s GABAA receptor (Q16445 20-453, one chain of several): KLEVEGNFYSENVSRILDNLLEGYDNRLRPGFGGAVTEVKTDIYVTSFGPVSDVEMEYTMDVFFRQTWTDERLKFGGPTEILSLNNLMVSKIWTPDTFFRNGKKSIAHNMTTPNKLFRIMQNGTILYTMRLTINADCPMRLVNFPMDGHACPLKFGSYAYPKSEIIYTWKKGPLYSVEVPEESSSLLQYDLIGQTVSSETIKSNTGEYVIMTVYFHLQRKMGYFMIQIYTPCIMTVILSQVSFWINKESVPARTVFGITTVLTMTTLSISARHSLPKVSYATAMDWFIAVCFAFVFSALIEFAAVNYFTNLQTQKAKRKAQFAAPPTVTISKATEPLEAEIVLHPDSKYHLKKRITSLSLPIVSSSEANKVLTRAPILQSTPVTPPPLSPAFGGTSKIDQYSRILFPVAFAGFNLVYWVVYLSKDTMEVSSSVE
Sequence of human α6β2γ2s GABAA receptor (P18507 40-467 isoform P18507-1 limits assumed, one chain of several): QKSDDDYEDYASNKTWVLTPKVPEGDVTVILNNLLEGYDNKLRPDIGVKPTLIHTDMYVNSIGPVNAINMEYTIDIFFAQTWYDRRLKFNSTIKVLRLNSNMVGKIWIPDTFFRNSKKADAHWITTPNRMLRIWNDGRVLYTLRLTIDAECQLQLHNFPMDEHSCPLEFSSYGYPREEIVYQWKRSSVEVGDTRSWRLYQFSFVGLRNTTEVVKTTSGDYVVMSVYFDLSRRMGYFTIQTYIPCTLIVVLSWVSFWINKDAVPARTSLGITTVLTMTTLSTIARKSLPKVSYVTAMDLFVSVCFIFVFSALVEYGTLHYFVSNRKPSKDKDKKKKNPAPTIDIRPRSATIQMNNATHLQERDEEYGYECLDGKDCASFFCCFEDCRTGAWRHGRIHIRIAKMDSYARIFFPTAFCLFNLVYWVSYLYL

Sequence of human α6β2δ GABAA receptor (Q16445 20-453, one chain of several): as the sequence (Q16445 20-453, one chain of several) above
Sequence of human α4β2δ GABAA receptor (P48169 36-554, one chain of several): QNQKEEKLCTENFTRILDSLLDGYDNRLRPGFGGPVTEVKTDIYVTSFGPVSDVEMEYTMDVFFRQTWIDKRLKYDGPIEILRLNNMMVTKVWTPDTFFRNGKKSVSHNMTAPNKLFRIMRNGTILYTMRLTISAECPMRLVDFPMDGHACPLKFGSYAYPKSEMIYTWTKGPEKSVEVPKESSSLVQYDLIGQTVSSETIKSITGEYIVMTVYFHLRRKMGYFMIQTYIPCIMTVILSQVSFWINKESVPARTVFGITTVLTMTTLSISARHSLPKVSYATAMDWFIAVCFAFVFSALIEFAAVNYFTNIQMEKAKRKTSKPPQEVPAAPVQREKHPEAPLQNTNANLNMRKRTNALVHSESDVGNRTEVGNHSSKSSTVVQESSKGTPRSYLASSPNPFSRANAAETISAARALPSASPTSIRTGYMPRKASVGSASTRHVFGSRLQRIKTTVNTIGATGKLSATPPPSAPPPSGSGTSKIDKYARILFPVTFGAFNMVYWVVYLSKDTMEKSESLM

GABA EC20 [1]: 1600 to 2000 nM
GABA EC20 [2]: 80 nM
GABA EC20 [3]: 50 nM
GABA EC20 [4]: 100 to 200 nM
Structure (SMILES): NCCCC(=O)O [GABA, γ-Aminobutyric acid]
